Results on two molecules are retold here after article PMC8248323 (Clinical Pharmacology in Drug Development, 2021).

Broadly, the AUC is concentration integrated over time.

The series is described as follows: Phase 1 DDI study 004 part B: midazolam. Conditions: for effect of lemborexant coadministration on exposure: coadministration with lemborexant 10 mg; for AUC: human, plasma, Geometric LSM.
Setting [1] is: with lemborexant / without lemborexant.
Setting [2] is: coadministration of lemborexant with bupropion.

Marks after values point to notes of the source that are not given here.

`Cc1ncc2n1-c1ccc(Cl)cc1C(c1ccccc1F)=NC2` [Midazolam]: the “effect of lemborexant coadministration on exposure” value is “not affected”. For the same molecule, the “effect of lemborexant coadministration on exposure” value (listed as midazolam) is “did not have an effect”. The AUC (AUC0‐inf, midazolam 2 mg + bupropion 75 mg + lemborexant 10 mg daily) turned out to be 24.1 ng·h/mL. For the same molecule, under “AUC0‐inf, midazolam 2 mg + bupropion 75 mg, without lemborexant”, the AUC worked out at 21.4 ng·h/mL. Further, for the setting “AUC0‐t, midazolam 2 mg + bupropion 75 mg + lemborexant 10 mg daily (n = 28)”, the AUC stood at 22.9 ng·h/mL. Also, the AUC (AUC0‐t, midazolam 2 mg + bupropion 75 mg single dose, without lemborexant (n = 27)) amounted to 20.2 ng·h/mL. Moreover, under setting [1], the “AUC0‐inf, Geometric Mean Ratio (90%CI)” value is 1.130 (1.023–1.247); the “AUC0‐t, Geometric Mean Ratio (90%CI)” value was 1.133 (1.025–1.253); the “Cmax, Geometric Mean Ratio (90%CI)” value is listed as 1.126 (1.026–1.236).

Regarding `C[C@@H]1NC(C)(C)CO[C@@]1(O)c1cccc(Cl)c1` [[S,S]‐hydroxylated bupropion], the “AUC0‐t metabolite/parent ratio” value is recorded as 124% (bupropion with lemborexant) and 88.7% (bupropion without lemborexant). The “decrease in AUC0‐t” value under setting [2] worked out at 24.5%. For the same molecule, the “decrease in Cmax” value under setting [2] is on record as 17%. Also, the “Cmax, Geometric LSM” value reads like this: (midazolam 2 mg + bupropion 75 mg + lemborexant 10 mg daily) 6.57 ^c ng/mL; (midazolam 2 mg + bupropion 75 mg, without lemborexant) 7.93 ng/mL. Moreover, the “AUC0‐t, Geometric LSM” value is 53.2 ^c ng·h/mL (midazolam 2 mg + bupropion 75 mg + lemborexant 10 mg daily (n = 28)) and 70.5 ng·h/mL (midazolam 2 mg + bupropion 75 mg single dose, without lemborexant (n = 27)). For the same molecule, under setting [1], the “AUC0‐t, Geometric Mean Ratio (90%CI)” value is listed as 0.755 (0.661–0.862). In addition, the “Cmax, Geometric Mean Ratio (90%CI)” value under setting [1] was 0.829 (0.759–0.905).
